Test results taken from patent US20140128352A1, “COMPOUNDS AND METHODS FOR MODULATING MITOCHONDRIAL METABOLISM AND REACTIVE OXYGEN SPECIES PRODUCTION” (Buck Institute for Research on Aging, priority 2012, published 2014).
Like-named read-outs stand apart in the source and are kept apart here. Each block holds one compound with its values, some of them ahead of it.

Legend:
[1] = tested on: ubiquinone binding site of complex I (IQ); experiment: High-throughput screen: ROS production from ubiquinone binding site of complex I (IQ), isolated skeletal muscle mitochondria; format: biochemical, rat; details: percent change in ROS from DMSO controls
Protocol: (§1) Skeletal muscle mitochondria were isolated from 5-8 week old female Wistar rats (Harlan Laboratories). Minced muscle was homogenized in buffer containing bacterial protease Type VIII prior to differential centrifugation to separate mitochondria from other tissue components. Unless otherwise stated, freshly isolated muscle mitochondria were assayed in buffer containing 120 mM KCl, 5 mM HEPES, 1 mM EGTA, 0.3% (w/v) bovine serum albumin. Where indicated, CaCl2 was added to yield a final free concentration of 250 nM calcium at pH 7.0 at 37° C.
(§2) Compounds (10 mM in DMSO) were randomly selected from a library of 24,000 compounds obtained from ChemBridge and curated by the lab of Robert Hughes at the Buck Institute. Master screening plates were prepared using a Biomek FX liquid handling workstation (Beckman) to transfer 1 μL of each compound into individual wells on 96-well storage plates (80 compounds per plate). Master plates were sealed with foil and stored at −80° C. Just prior to use, plates were brought to room temperature and diluted 300-fold with standard buffer (13.3X=33.3 μM). To monitor the performance of each assay throughout screening and to provide intra-plate normalization reference points, DMSO negative controls and known mitochondrial inhibitor positive controls were included on each Master compound plate.
(§3) Total amounts of superoxide and H2O2 production were determined fluorometrically as H2O2, without distinguishing between them, in the presence of exogenous superoxide dismutase (25 units/mL final), horseradish peroxidase (1 unit/mL final), and Amplex UltraRed (25 μM final) as described (Affourtit, C. et al. (2012) Measurement of proton leak and electron leak in isolated mitochondria. Methods Mol. Biol. 810: 165-82). Just prior to use, a bulk 3.3X solution was made in standard buffer and distributed into a 2 mL deep well 96-well transfer plate.
To assess the effects of a compound on ROS production from the ubiquinone binding site of complex I (IQ), Start Solution containing 5 mM succinate was distributed into standard 96-well transfer plates. A Biomek FX workstation was programmed to dispense solutions into black 96-well assay plates. Solutions were dispensed to all assay plates in the following order: ROS Detection solution described in Example 3, Mitochondria solution described in Example 1 to a final concentration of 0.1 mg/ml, and Compound dilutions described in Example 2. Duplicate assay plates were made and each was initiated by the addition of 3.3X Start solution containing 5 mM succinate. Plates were incubated in the dark at room temperature for 30-40 minutes before acquiring endpoint fluorescence using a Victor 3V plate reader (Perkin Elmer) equipped with 550/590 nm excitation/emission filters.
The fluorescence values in each well were scaled as the percent change from the intra-plate DMSO controls with the appropriate inhibitor positive controls defined as −100%. Following initial scaling, intra-plate normalized values were subjected to Tukey's two-way median polish to remove row and column dependent positional effects (Malo et al, 2006).

[2] = biological target: T1, flavin binding site of complex I (IF) (Rattus norvegicus, UniProt Q5XIH3); experiment: High-throughput screen: ROS production from flavin binding site of complex I (IF); format: biochemical
T1 construct: freshly isolated muscle mitochondria were assayed; from tissue; host or cells: rat skeletal muscle mitochondria (Wistar, Harlan Laboratories)

[3] = biological target: T2, outer ubiquinone binding site of complex III (IIIQO) (Rattus norvegicus, UniProt P00159+P20788); experiment: High-throughput screen: ROS production from outer ubiquinone binding site of complex III (IIIQO); format: biochemical; details: percent change in ROS from DMSO controls
T2 construct: freshly isolated muscle mitochondria were assayed; from tissue; host or cells: rat skeletal muscle mitochondria (Wistar, Harlan Laboratories)
Protocol: as §1, §2, §3
To assess the effects of a compound on ROS production from the outer ubiquinone binding site of complex III (IIIQO), Start Solution containing 5 mM succinate, 4 μM rotenone and 2.5 μM antimycin A was distributed into standard 96-well transfer plates. A Biomek FX workstation was programmed to dispense solutions into black 96-well assay plates. Solutions were dispensed to all assay plates in the following order: ROS Detection solution described in Example 3, Mitochondria solution described in Example 1 to a final concentration of 0.1 mg/ml, and Compound dilutions described in Example 2. Duplicate assay plates were made and each was initiated by the addition of 3.3X Start solution containing 5 mM succinate, 4 μM rotenone and 2.5 μM antimycin A. Plates were incubated in the dark at room temperature for 30-40 minutes before acquiring endpoint fluorescence using a Victor 3V plate reader (Perkin Elmer) equipped with 550/590 nm excitation/emission filters.
The fluorescence values in each well were scaled as the percent change from the intra-plate DMSO controls with the appropriate inhibitor positive controls defined as −100%. Following initial scaling, intra-plate normalized values were subjected to Tukey's two-way median polish to remove row and column dependent positional effects (Malo et al., 2006).

[4] = biological target: T3, succinate dehydrogenase/complex II (SDH) (Rattus norvegicus, UniProt P21913+Q641Z9+Q6PCT8+Q920L2); experiment: High-throughput screen: ROS production from succinate dehydrogenase/complex II (SDH); format: biochemical; details: for inhibition at 2.5 µM: Table 7
T3 construct: freshly isolated muscle mitochondria were assayed; from tissue; host or cells: rat skeletal muscle mitochondria (Wistar, Harlan Laboratories)

[5] = biological target: T4, glycerol-3-phosphate dehydrogenase (GPDH) (Rattus norvegicus, UniProt P35571); experiment: High-throughput screen: ROS production from glycerol-3-phosphate dehydrogenase (GPDH); format: biochemical; set-up: inhibition: dose or concentration left out as unconfirmed; details: for inhibition: Table 7
T4 construct: The activity of GPDH in intact mitochondria (0.3 mg/mL) was measured; from tissue; host or cells: rat skeletal muscle mitochondria (Wistar, Harlan Laboratories)
T4 sequence (P35571 43-727): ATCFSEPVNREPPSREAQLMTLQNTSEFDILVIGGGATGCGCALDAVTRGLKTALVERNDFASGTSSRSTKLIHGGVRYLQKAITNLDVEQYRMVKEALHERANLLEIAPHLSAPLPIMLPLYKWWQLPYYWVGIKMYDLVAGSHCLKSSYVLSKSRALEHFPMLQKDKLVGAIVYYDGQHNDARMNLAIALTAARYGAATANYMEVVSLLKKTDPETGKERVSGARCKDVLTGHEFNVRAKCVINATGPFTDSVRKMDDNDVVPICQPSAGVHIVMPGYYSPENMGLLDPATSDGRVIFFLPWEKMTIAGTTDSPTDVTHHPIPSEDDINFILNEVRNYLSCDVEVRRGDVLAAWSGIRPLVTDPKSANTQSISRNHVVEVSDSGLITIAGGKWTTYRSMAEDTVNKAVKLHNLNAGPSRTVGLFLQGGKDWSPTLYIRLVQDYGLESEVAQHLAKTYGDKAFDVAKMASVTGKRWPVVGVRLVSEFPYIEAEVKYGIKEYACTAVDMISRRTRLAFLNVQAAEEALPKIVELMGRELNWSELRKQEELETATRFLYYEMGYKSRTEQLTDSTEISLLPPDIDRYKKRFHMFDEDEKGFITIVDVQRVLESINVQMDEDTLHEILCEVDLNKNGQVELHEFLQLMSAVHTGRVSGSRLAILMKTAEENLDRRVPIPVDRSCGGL
Protocol: as §1, §2, §3
To assess the effects of a compound on ROS production from glycerol-3-phosphate dehydrogenase (GPDH), Start Solution containing 25 mM glycerol phosphate, 4 μM rotenone, 2.5 μM antimycin A, 1 mM malonate, 2 μM myxothiazol was distributed into standard 96-well transfer plates. A Biomek FX workstation was programmed to dispense solutions into black 96-well assay plates. Solutions were dispensed to all assay plates in the following order: ROS Detection solution described in Example 3, Mitochondria solution described in Example 1 to a final concentration of 0.2 mg/ml, and Compound dilutions described in Example 2. Duplicate assay plates were made and each was initiated by the addition of 3.3X Start solution containing 25 mM glycerol phosphate, 4 μM rotenone, 2.5 μM antimycin A, 1 mM malonate, 2 μM myxothiazol. Plates were incubated in the dark at room temperature for 30-40 minutes before acquiring endpoint fluorescence using a Victor 3V plate reader (Perkin Elmer) equipped with 550/590 nm excitation/emission filters.
The fluorescence values in each well were scaled as the percent change from the intra-plate DMSO controls. […] Following initial scaling, intra-plate normalized values were subjected to Tukey's two-way median polish to remove row and column dependent positional effects (Malo et al., 2006).

[6] = tested on: mitochondrial membrane potential (ΔΨm); experiment: Membrane potential (ΔΨm) counterscreen with TMRM; details: malate, nigericin
[7] = Table 3, 5 mM glutamate, 5 mM malate, 4 μM rotenone, compounds 2.5 μM, percent change from DMSO, positive control −100%, read-out: % Reduction in ROS production (IF)
[8] = Table 7, percent change in ROS from DMSO controls, read-out: IF
[9] = Table 8, percent change in ROS from DMSO controls
[10] = Table 9, percent change in ROS from DMSO controls
[11] = percent change in ROS from DMSO controls

T1 sequence (Q5XIH3 21-464 limits assumed, one chain of several): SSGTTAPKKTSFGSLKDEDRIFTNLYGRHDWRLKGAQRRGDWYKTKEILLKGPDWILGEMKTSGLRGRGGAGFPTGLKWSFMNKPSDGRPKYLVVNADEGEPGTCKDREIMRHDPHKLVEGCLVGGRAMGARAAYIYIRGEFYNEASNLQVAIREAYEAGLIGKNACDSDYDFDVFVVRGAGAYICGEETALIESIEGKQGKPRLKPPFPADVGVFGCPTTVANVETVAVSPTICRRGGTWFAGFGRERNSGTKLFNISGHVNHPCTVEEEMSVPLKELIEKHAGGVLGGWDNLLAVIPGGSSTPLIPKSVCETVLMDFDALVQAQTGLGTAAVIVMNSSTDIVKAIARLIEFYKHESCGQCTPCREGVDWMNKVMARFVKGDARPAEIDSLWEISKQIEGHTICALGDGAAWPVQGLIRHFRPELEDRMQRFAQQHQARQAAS
T3 sequence (Q920L2 35-656): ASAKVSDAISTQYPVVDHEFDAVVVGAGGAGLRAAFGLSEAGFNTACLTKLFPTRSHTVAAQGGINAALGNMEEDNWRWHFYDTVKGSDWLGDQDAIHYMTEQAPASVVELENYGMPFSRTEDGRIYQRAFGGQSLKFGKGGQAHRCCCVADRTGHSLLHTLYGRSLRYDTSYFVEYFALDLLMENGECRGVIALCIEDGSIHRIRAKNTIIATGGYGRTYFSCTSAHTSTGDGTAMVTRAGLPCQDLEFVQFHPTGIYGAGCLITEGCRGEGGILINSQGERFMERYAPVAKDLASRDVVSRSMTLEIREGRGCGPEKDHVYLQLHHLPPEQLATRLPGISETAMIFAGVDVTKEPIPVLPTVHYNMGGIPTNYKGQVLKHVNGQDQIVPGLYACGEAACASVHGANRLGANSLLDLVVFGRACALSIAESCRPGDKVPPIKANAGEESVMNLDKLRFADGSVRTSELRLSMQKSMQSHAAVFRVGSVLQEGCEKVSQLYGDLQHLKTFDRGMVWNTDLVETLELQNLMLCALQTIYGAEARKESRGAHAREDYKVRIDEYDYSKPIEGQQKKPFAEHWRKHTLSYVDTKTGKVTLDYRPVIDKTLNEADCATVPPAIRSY
T3 sequence (P21913 31-282): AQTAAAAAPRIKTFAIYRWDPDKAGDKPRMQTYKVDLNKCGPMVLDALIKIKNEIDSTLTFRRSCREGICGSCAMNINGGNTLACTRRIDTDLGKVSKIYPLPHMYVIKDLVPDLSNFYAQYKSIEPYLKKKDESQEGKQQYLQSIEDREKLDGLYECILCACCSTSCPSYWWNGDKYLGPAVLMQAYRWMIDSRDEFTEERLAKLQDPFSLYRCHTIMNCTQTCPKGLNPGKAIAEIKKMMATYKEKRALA
T3 sequence (Q641Z9 30-169 limits assumed): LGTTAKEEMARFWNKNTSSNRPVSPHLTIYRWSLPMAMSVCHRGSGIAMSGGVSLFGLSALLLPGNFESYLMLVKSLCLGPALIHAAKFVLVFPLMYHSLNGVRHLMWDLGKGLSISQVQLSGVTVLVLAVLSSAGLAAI
T3 sequence (Q6PCT8 57-159): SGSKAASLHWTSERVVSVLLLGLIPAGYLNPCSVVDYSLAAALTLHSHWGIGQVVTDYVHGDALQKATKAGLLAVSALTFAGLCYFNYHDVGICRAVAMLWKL

SMILES: CC1=CC(C)C(C2OCC(CN3CCCCC3)O2)C(C)C1 (stereo not drawn) [Compound 13]
- IQ ([1]; Table 7): 0.1
- IQ ([1]; Table 8): 0.1
- IQ ([1]; Table 9): 0.1
- inhibition at 2.5 µM [2, 7]: 39%
- inhibition at 2.5 µM [2, 8]: 39%
- IF [2, 9]: −39.0
- IF [2, 10]: −39.0
- inhibition at 2.5 µM ([3]; Table 7, read-out: IIIQO): 9%
- IIIQO ([3]; Table 8): −9.0
- inhibition at 2.5 µM ([3]; Table 9, read-out: IIIQo): 9%
- inhibition at 2.5 µM [4, 11]: 2.8%
- SDH [4, 9]: −2.8
- SDH [4, 10]: −2.8
- inhibition [5, 11]: 1.2%
- GPDH [5, 9]: −1.2
- GPDH [5, 10]: −1.2
- ΔΨm ([6]; Table 8, glutamate): −0.5
- ΔΨm ([6]; Table 9, glutamate): −0.5

SMILES: Cc1cc(C)c(OCC(O)CNC(C)(C)CC(C)(C)C)c(C)c1.Cl (stereo not drawn) [Compound 14]
- IQ ([1]; Table 7): −4.7
- IQ ([1]; Table 8): −4.7
- IQ ([1]; Table 9): −4.7
- % Reduction in ROS production (IF) [2]: −37.7%
- IF [2]: −37.7
- IIIQO ([3]; Table 7): −2.9
- IIIQO ([3]; Table 8): −2.9
- IIIQO ([3]; Table 9): −2.9
- SDH [4]: −9.6
- GPDH [5]: −3.9
- ΔΨm ([6]; Table 8, glutamate): −0.7
- ΔΨm ([6]; Table 9, glutamate): −0.7

SMILES: COc1ccccc1/C=C/c1nc(O)nc(O)c1[N+](=O)[O-] [Compound 16]
- IQ ([1]; Table 7): −5.4
- IQ ([1]; Table 8): −5.4
- IQ ([1]; Table 9): −5.4
- inhibition at 2.5 µM [2, 7]: 26.7%
- inhibition at 2.5 µM [2, 8]: 26.7%
- IF [2, 9]: −26.7
- IF [2, 10]: −26.7
- inhibition at 2.5 µM ([3]; Table 7, read-out: IIIQO): -6.6%
- IIIQO ([3]; Table 8): 6.6
- inhibition at 2.5 µM ([3]; Table 9, read-out: IIIQo): -6.6%
- inhibition at 2.5 µM [4, 11]: -4.2%
- SDH [4, 9]: 4.2
- SDH [4, 10]: 4.2
- inhibition [5, 11]: 0.6%
- GPDH [5, 9]: −0.6
- GPDH [5, 10]: −0.6
- ΔΨm ([6]; Table 8, glutamate): −0.3
- ΔΨm ([6]; Table 9, glutamate): −0.3

SMILES: COc1cccc(/C=C/C(=O)c2c(O)cc(C)oc2=O)c1O [Compound 17]
- IQ ([1]; Table 7): −7.4
- IQ ([1]; Table 8): −7.4
- IQ ([1]; Table 9): −7.4
- inhibition at 2.5 µM [2, 7]: 26%
- inhibition at 2.5 µM [2, 8]: 26%
- IF [2, 9]: −26.0
- IF [2, 10]: −26.0
- inhibition at 2.5 µM ([3]; Table 7, read-out: IIIQO): 6%
- IIIQO ([3]; Table 8): −6.0
- inhibition at 2.5 µM ([3]; Table 9, read-out: IIIQo): 6%
- inhibition at 2.5 µM [4, 11]: 3.4%
- SDH [4, 9]: −3.4
- SDH [4, 10]: −3.4
- inhibition [5, 11]: 3.6%
- GPDH [5, 9]: −3.6
- GPDH [5, 10]: −3.6
- ΔΨm ([6]; Table 8, glutamate): 0.3
- ΔΨm ([6]; Table 9, glutamate): 0.3

Now from value to compound, other results behind:

- inhibition at 2.5 µM ([3]; Table 7, read-out: IIIQO): 7.5%
- IIIQO ([3]; Table 8): −7.5
- inhibition at 2.5 µM ([3]; Table 9, read-out: IIIQo): 7.5%
- inhibition at 2.5 µM [4, 11]: 2.7%
- SDH [4, 9]: −2.7
- SDH [4, 10]: −2.7
- inhibition [5, 11]: 2.5%
- GPDH [5, 9]: −2.5
- GPDH [5, 10]: −2.5
SMILES: CCCN(CCO)Cc1ccc2c(c1)c1ccccc1n2CC [Compound 15]
- IQ ([1]; Table 7): −0.1
- IQ ([1]; Table 8): −0.1
- IQ ([1]; Table 9): −0.1
- inhibition at 2.5 µM [2, 7]: 27.6%
- inhibition at 2.5 µM [2, 8]: 27.6%
- IF [2, 9]: −27.6
- IF [2, 10]: −27.6
- ΔΨm ([6]; Table 8, glutamate): −0.9
- ΔΨm ([6]; Table 9, glutamate): −0.9

- inhibition at 2.5 µM ([3]; Table 7, read-out: IIIQO): -5.4%
- IIIQO ([3]; Table 8): 5.4
- inhibition at 2.5 µM ([3]; Table 9, read-out: IIIQo): -5.4%
- inhibition at 2.5 µM [4, 11]: 0.3%
- SDH [4, 9]: −0.3
- SDH [4, 10]: −0.3
- inhibition [5, 11]: 0.6%
- GPDH [5, 9]: −0.6
- GPDH [5, 10]: −0.6
SMILES: O=C(Nc1ccccc1C(=O)O)c1ccccc1 [Compound 18]
- IQ ([1]; Table 7): −1.0
- IQ ([1]; Table 8): −1.0
- IQ ([1]; Table 9): −1.0
- inhibition at 2.5 µM [2, 7]: 25.8%
- inhibition at 2.5 µM [2, 8]: 25.8%
- IF [2, 9]: −25.8
- IF [2, 10]: −25.8
- ΔΨm ([6]; Table 8, glutamate): −0.7
- ΔΨm ([6]; Table 9, glutamate): −0.7
